| melting point | Structure (SMILES) |
| --- | --- |
| 162 to 164 °C | Cc1nc(CCC(=O)O)oc1-c1ccccc1 |
| 90 to 91 °C | COc1ccccc1N1C(=O)C=CC1=O |
| 166 to 168 °C | CCOC(=O)Nc1ccc(N)cc1C#N |
| 182 to 184 °C | O=C(NO)c1ccccc1Br |
| 183 to 187 °C | COc1ccc2c(CC(=O)O)cc(=O)oc2c1 |
| 137 to 139 °C | CCc1ccc(OCc2nnc(S)n2Cc2ccccc2)cc1 |
| 82 to 84 °C | Cc1ccccc1OCCCC(=O)Nc1ccc(CN)cc1 |
| 170 to 172 °C | NC(=O)NC(=O)C(Cl)c1ccccc1 (stereo not drawn) |
| 139 to 141 °C | O=S1(=O)CCNc2ccccc21 |
| 219 to 221 °C | Nc1ccc(-c2nncn2-c2ccccc2)cn1 |
| 128 to 130 °C | CCOC(=O)Cc1ncccc1C(=O)O |
| 98 to 100 °C | O=C1c2ccccc2C(=O)N1CC1CO1 (stereo not drawn) |
| 176 to 178 °C | Cc1sc(NC(=O)CCl)nc1-c1ccc(Cl)cc1 |
| 95 to 100 °C | CCOc1ccc(NC(=O)CC#N)cc1 |
| 216 to 218 °C | CCc1cc2c(CCl)cc(=O)oc2cc1O |
| 113 to 115 °C | COC(=O)c1ccc(CCC(=O)O)cc1 |
| 119 to 121 °C | COc1cccc(C2(C)NC(=O)NC2=O)c1 (stereo not drawn) |
| 202 to 204 °C | O=C(O)c1cccnc1Nc1cccc(F)c1 |
| 137 to 139 °C | O=C(O)Cc1csc(Cc2ccc(F)cc2)n1 |

| melting point | Structure (SMILES) |
| --- | --- |
| 96 to 98 °C | CCc1ccccc1N(C(C)=O)c1nc(CN=C=S)cs1 |
| 138 to 140 °C | N#Cc1oc2ccccc2c1O |
| 208 to 210 °C | COC(=O)c1c[nH]c2ncccc12 |
| 94 to 96 °C | CCOC(=O)c1ccc(S(=O)(=O)N2CCNCC2)cc1 |
| 277 to 279 °C | O=C(O)c1cccc(N2CCCNC2=O)c1 |
| 224 to 226 °C | Cc1nn(-c2ccc(Cl)cc2)cc1C(=O)O |
| 83 to 85 °C | CC(Oc1cccnc1N)c1ccccc1 (stereo not drawn) |
| 189 to 191 °C | O=C(NC(c1nn[nH]n1)C1CC1)c1ccccc1 (stereo not drawn) |
| 163 to 165 °C | COC(=O)c1cc(Cl)c2cc(Br)ccc2n1 |
| 146 to 148 °C | CCCCn1c(=O)c(CCC(=O)O)nc2ccccc21 |
| 173 to 175 °C | Cc1ccc(N2C(=O)Cc3ccccc3C2=O)cc1 |
| 94 to 96 °C | Clc1ccc(CBr)c2ncccc12 |
| 215 to 217 °C | O=S(=O)(Cc1nc2ccccc2[nH]1)c1ccccc1 |
| 214 to 216 °C | NC(=NO)c1ccc(-n2cnc3ccccc32)nc1 |
| 159 to 161 °C | c1ccc(-c2nnc3n2CCNC3)cc1 |
| 203 to 205 °C | CC(C)C(=O)Nc1cc2ccccc2cc1C(=O)O |
| 211 to 213 °C | O=C(O)c1cc(C2CC2)nc2ccc(Cl)cc12 |
| 207 to 209 °C | Cc1ccc2nc(C3CC3)cc(C(=O)O)c2c1 |
| 89 to 91 °C | CCOc1cccc(CC(=O)O)c1 |

| melting point | Structure (SMILES) |
| --- | --- |
| 50 to 52 °C | CC(Sc1ccccc1Cl)C(=O)O (stereo not drawn) |
| 90 to 92 °C | Cc1cc(N)ccc1Oc1cccnc1 |
| 290 to 292 °C | O=c1oc2ccccc2c(O)c1Cc1c(O)c2ccccc2oc1=O |
| 54 to 56 °C | c1ccc(NCc2cccc3ccccc23)cc1 |
| 86 to 88 °C | NC(Cn1cnc2ccccc21)c1ccc(F)cc1 (stereo not drawn) |
| 71 to 73 °C | COc1ccc(NS(=O)(=O)c2cc(C(=O)O)ccc2C)cc1 |
| 143 to 145 °C | NC(=O)CCN(C(=O)CCl)c1ccccc1 |
| 209 to 211 °C | O=C(O)c1coc(-c2ccccc2)n1 |
| 243 to 245 °C | Cc1ccnn1-c1ccc(C(=O)O)cc1 |
| 219 to 221 °C | Cc1c(C(=O)O)nnn1-c1ccc2ncccc2c1 |
| 189 to 191 °C | O=C(O)c1noc(-c2ccccc2F)n1 |
| 189 to 193 °C | CCOC(=O)c1nc2ccccc2c(=O)[nH]1 |
| 148 to 150 °C | Nc1c(-c2ccccc2)ncn1C1CC1 |
| 213 to 215 °C | O=C1NC(=O)N(c2ccccc2)C1=O |
| 244 to 246 °C | O=c1sc2ccccc2nc1NO |
| 130 to 132 °C | CCOC(=O)c1cc(S(C)(=O)=O)ccc1N |
| 164 to 166 °C | Cn1c(=O)c2ccccc2n2cc3ccccc3c12 |
| 183 to 185 °C | CCn1c(C)nc2cc(C(=O)NN)ccc21 |

Continued, compound first:

| Structure (SMILES) | melting point |
| --- | --- |
| Nc1ccc(S(=O)(=O)N2CCOCC2)cc1N | 169 to 171 °C |
| COC(=O)c1ccnc(C#N)c1 | 109 to 111 °C |
| COc1ccc(Br)nc1C(F)(F)F | 32 to 34 °C |
| Nc1ccc(CN2CCC(CO)CC2)cc1 | 165 to 167 °C |
| O=S(=O)(Cl)c1cc2c(cc1Br)OCCO2 | 173 to 175 °C |
| O=C(O)C=CC(=O)c1ccc(F)c(F)c1 | 114 to 116 °C |
| NC(=O)CNCC(N)=O | 129 to 131 °C |
| Nc1cc(Cl)ccc1-n1cnnn1 | 130 to 132 °C |
| O=C(O)c1ccn(C2CCCC2)n1 | 108 to 110 °C |
| COc1ccc(F)cc1CCl | 52 to 53 °C |
| CC(=O)c1ccc(Cl)c(Cl)c1O | 108 to 110 °C |
| COc1cc(C=O)c([N+](=O)[O-])cc1O | 207 to 209 °C |
| NCc1ccc(N2CCOC2=O)cc1 | 94 to 96 °C |
| O=C1CCc2cc(OCCO)ccc2N1 | 180 to 182 °C |
| Nc1cc(Cl)ccc1-n1cncn1 | 93 to 97 °C |
| CCc1csc(-n2cc(C(=O)O)cn2)n1 | 159 to 161 °C |
| CC(C)NCCc1nc(-c2ccc(S(C)(=O)=O)cc2)c[nH]1 | 264 to 266 °C |
| O=C(O)c1cc(Br)c(Cl)[nH]1 | 179 to 181 °C |
| CC(=O)N1CCN(S(=O)(=O)c2ccc(C(=O)O)cc2)CC1 | 277 to 279 °C |
| Nc1nc(-c2ccc([N+](=O)[O-])cc2)no1 | 294 to 296 °C |
| CC(C)NS(=O)(=O)c1ccc(Cl)c(C(=O)O)c1Cl | 218 to 220 °C |
| Sc1nnc(-c2ccncc2)o1 | 270 to 275 °C |

| Structure (SMILES) | melting point |
| --- | --- |
| COc1ccc(CC#N)cc1[N+](=O)[O-] | 84 to 86 °C |
| N#Cc1ccc(OCC2CO2)c([N+](=O)[O-])c1 (stereo not drawn) | 85 to 87 °C |
| O=C1NCCc2c(Br)cccc21 | 109 to 111 °C |
| O=C(O)CCS(=O)(=O)N1CCOCC1 | 163 to 165 °C |
| O=C1NCC(Br)C(=O)N1 (stereo not drawn) | 200 to 202 °C |
| Cc1nnc(Sc2ccc(N)c(C)c2)s1 | 142 to 144 °C |
| ClCc1cc(Br)ccc1Cl | 47 to 49 °C |
| O=C(O)c1ccc(N2CCCc3ccccc32)cc1 | 214 to 216 °C |
| CN(C)c1ccc(C(=O)O)nn1 | 167 to 169 °C |
| NC(=O)CC1CCCCN1 (stereo not drawn) | 108 to 110 °C |
| CC(=O)Nc1ccc(C(=O)C(C)Cl)cc1 (stereo not drawn) | 190 to 193 °C |
| Nc1cc(N2CCOCC2)c(F)cc1[N+](=O)[O-] | 185 to 187 °C |
| Cc1cc(C#N)ccc1-n1cncn1 | 139 to 141 °C |
| ClCc1cccc(Cl)n1 | 42 to 44 °C |
| CC(=O)NCc1ccc(C(=O)O)s1 | 186 to 188 °C |
| Cc1cc(C#N)ccc1O | 89 to 91 °C |
| N#CCC(=O)NCCN1CCOCC1 | 68 to 75 °C |
| CCN(CC)c1ccc(NC(=O)CCl)cc1 | 141 to 143 °C |
| O=c1cc(CCl)nc2sccn12 | 180 to 182 °C |
| O=C(O)c1ccc(CN(Cc2ccccc2)S(=O)(=O)c2ccc(Cl)cc2)cc1 | 203 to 205 °C |
| CS(=O)(=O)c1ncc[nH]1 | 206 to 208 °C |
| CCC(C)C(=O)N1CCCC(C(=O)O)C1 (stereo not drawn) | 118 to 120 °C |

| Structure (SMILES) | melting point |
| --- | --- |
| O=C(O)CCn1cc([N+](=O)[O-])cn1 | 143 to 145 °C |
| CC(C)Oc1ccc([N+](=O)[O-])c(C(=O)O)c1 | 135 to 137 °C |
| O=c1[nH]c(C(F)(F)F)cs1 | 91 to 93 °C |
| N#Cc1c([N+](=O)[O-])cccc1S(=O)(=O)Cl | 89 to 91 °C |
| O=C(O)c1cc(C2CC2)nc2c1cnn2C1CCCCC1 | 210 to 212 °C |
| CN(C)c1ccc(S(N)(=O)=O)cc1N | 150 to 154 °C |
| N#Cc1cccnc1C1CC1 | 60 to 62 °C |
| CC1(C)NC(=O)N(Cc2ccc(C#N)cc2)C1=O | 167 to 169 °C |
| COc1ccc(Nc2nc3cc(S(=O)(=O)N4CCOCC4)ccc3o2)cc1 | 219 to 221 °C |
| COCCCOc1cc(C)ccc1C#N | 67 to 69 °C |
| CCOc1c(N)cc(Cl)cc1Br | 45 to 47 °C |
| ClCc1ccc(I)cc1 | 49 to 51 °C |
| N#CN=C1CCCN1 | 126 to 128 °C |
| O=C(O)CCCCNC(=O)c1ccc2[nH]nnc2c1 | 189 to 191 °C |
| COc1ccc(NS(=O)(=O)c2ccc(N)c(N)c2)cc1 | 163 to 165 °C |
| Cc1nn(-c2ccc(Cl)c(Cl)c2)c(C)c1CC(=O)O | 140 to 142 °C |
| Oc1ccc(-c2nc3cc(C(F)(F)F)ccc3s2)cc1 | 182 to 184 °C |
| O=C(O)c1ccc(-n2cnnn2)cc1 | 220 to 230 °C |
| O=C1CN(C2CCCC2)C(=O)N1 | 148 to 150 °C |
| Nc1ccnc(OCCO)c1 | 99 to 101 °C |
| CCC(=O)N1CCC(C(=O)O)C1 (stereo not drawn) | 118 to 120 °C |
| CC(=O)Nc1c(C)cc(N)cc1C | 204 to 206 °C |

| Structure (SMILES) | melting point |
| --- | --- |
| CCOC(Cn1cc(C(=O)O)nn1)OCC | 138 to 140 °C |
| Nc1nc(N2CCOCC2)ns1 | 187 to 189 °C |
| COc1ccc([N+](=O)[O-])cc1C(C)N (stereo not drawn) | 62 to 64 °C |
| CCCC1CCc2[nH]c(=O)c(C#N)cc2C1 (stereo not drawn) | 233 to 235 °C |
| Cc1cc2nc(C)c(CCC(=O)O)c(C)n2n1 | 260 to 262 °C |
| CN1CC(=O)N(CCCC(=O)O)C1=O | 79 to 81 °C |
| O=C(O)C=CC1=CCCC1 | 147 to 149 °C |
| N#Cc1ccsc1C(=O)O | 191 to 193 °C |
| CCc1cc(C(=O)O)sc1C | 108 to 110 °C |
| Cc1cc(NC(=O)CN2CCNCC2)no1 | 114 to 116 °C |
| CC(C)(C)OC(=O)N1CCC(OCC(F)(F)F)(C(=O)O)CC1 | 259 to 261 °C |
| Cc1nnc(NC(=O)OCC(F)(F)F)s1 | 231 to 233 °C |
| O=C(CCl)Cc1ccc(F)cc1 | 127 to 129 °C |
| O=C(O)CCN1C(=O)C(=O)c2ccc(F)cc21 | 179 to 181 °C |
| N#CCCSc1ccccc1N | 45 to 47 °C |
| Clc1ccc2c(Cl)ccc(Cl)c2n1 | 85 to 87 °C |
| Cc1noc2nc3c(cc12)CCOC3=O | 224 to 226 °C |
| N#Cc1cccc(N2CCOC2=O)c1 | 102 to 104 °C |
| CC(C)c1noc(-c2ccc(Br)cc2)n1 | 29 to 31 °C |
| COCCNC(N)=S | 118 to 120 °C |
| O=C(O)c1ccc(C2CC2)s1 | 111 to 113 °C |
